In patent US8642343B2, “Blood separating agent and blood collection container” (Sekisui Medical Co., Ltd., priority 2010, dated 2014):

Assay: Solubility of polymerization inhibitors at 25° C.
Conditions: in water

Row | Compound | Solubility (25° C.) | Solubility (25° C.) (listed as hydroquinone) [g/100 ml]
1 | COc1ccc(O)cc1 [Material 1, p-methoxyphenol] | 4 g/100 ml | 
2 | CC(C)(C)c1cc(O)c(C(C)(C)C)cc1O [Material 2, 2,5-di-t-butylhydroquinone] | 0.002 g/100 ml | 
3 | c1ccc2c(c1)Nc1ccccc1S2 [Material 3, phenothiazine] | insoluble | 
4 | Oc1ccc(O)cc1 [Material 4, hydroquinone, reference compound] | 7 g/100 mL g/100 ml | 7
